From publication PMC3593816 (Protein expression and purification, 2013)

Biological target: T1, Siglec5 (Homo sapiens, UniProt O15389, C36A)
T1 sequence (O15389 19-141 C36A): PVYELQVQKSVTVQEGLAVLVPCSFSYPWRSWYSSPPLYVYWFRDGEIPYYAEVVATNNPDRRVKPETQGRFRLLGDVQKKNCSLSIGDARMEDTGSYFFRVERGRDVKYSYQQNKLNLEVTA
Test: 2D 1H-15N HSQC NMR titration
Assay type: binding

Row | Kd [mM] | Compound
1 | > 100 | CC(=O)N[C@H]1[C@H]([C@H](O)[C@H](O)CO)OC(O)(C(=O)O)C[C@@H]1O (mixture of isomers) [sialic acid]
2 | 31 ± 8 | CC(=O)N[C@H]1[C@H]([C@H](O)[C@H](O)CO)O[C@@](OC[C@H]2O[C@@H](O[C@H]3[C@H](O)[C@@H](O)C(O)O[C@@H]3CO)[C@H](O)[C@@H](O)[C@H]2O)(C(=O)O)C[C@@H]1O (some centres unmarked) [6′-sialyllactose]
